Some test systems named below: SK-MEL-28; RXF 393; SF-539; HOP-62; NCI-H226; NCI-H460; ACHN; SN12C; A549; SNB-75; SF-268; MOLT-4; HCT-15; NCI/ADR-RES; PC-3; HL-60; T47D; SNB-19; OVCAR-3; UO-31.
What all share (assay): NCI-60 cell line screen, 48 h

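Cells were grown in 96-well plates and exposed to each compound for 48 hours at five concentrations; endpoints were interpolated linearly between bracketing concentrations, or set to the highest concentration if not reached. GI50 marks 50% less growth.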 Active and inactive are the calls of the source. Cut-off read from the data, not from the text of the source: active = GI50 up to about 1.1 µM and inactive = higher.

In the case of `CO[C@]1(c2ccc([N+](=O)[O-])cc2)Oc2ccccc2C(=O)[C@@]1(Nc1ccc(C=O)cc1)OC`, the GI50 with SK-MEL-28, in the assay with RXF 393, with SF-539, with HOP-62, in the assay on NCI-H226 and in the assay on NCI-H460 was > 10 µM (inactive) in each case. The GI50 in the assay with ACHN, with SN12C, with A549, in the assay on SNB-75, with SF-268 and in the assay on MOLT-4 was > 10 µM (inactive) in each case. The GI50 in the assay on HCT-15 is over 10 µM; in the assay on NCI/ADR-RES it was > 10 µM (inactive); with PC-3, > 10 µM (inactive); in the assay with HL-60 it was > 10 µM (inactive); in the assay on T47D, > 10 µM (inactive); in the assay on SNB-19, > 10 µM (inactive). For the same compound, the GI50 in the assay with OVCAR-3 and with UO-31 was > 10 µM (inactive) each time.

Consider `O=C(CCCl)NN=C1NCCN1`, for which the GI50 in the assay with SK-MEL-28, in the assay with RXF 393, in the assay with SF-539, in the assay on HOP-62, with NCI-H226 and in the assay with NCI-H460 was > 100 µM (inactive) in each case. Also, the GI50 in the assay on ACHN, in the assay with SN12C, with A549, in the assay with SNB-75, with SF-268 and in the assay on MOLT-4 was > 100 µM (inactive) throughout. For the same compound, the GI50 was over 100 µM in the assay on HCT-15; > 100 µM (inactive) with NCI/ADR-RES; > 100 µM (inactive) with PC-3; > 100 µM (inactive) in the assay with HL-60; > 100 µM (inactive) in the assay on T47D; > 100 µM (inactive) with SNB-19. For the same compound, the GI50 with OVCAR-3 and in the assay with UO-31 was > 100 µM (inactive) in each case.
